Several values for one entry are separate records, joined by “and”; a condition that tells them apart may be missing. Equal values may be shown once.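 Exposure lasted 48 hours, with cells grown in 96-well plates and compounds tested at five concentrations. At the GI50, growth is halved. TGI is the concentration that stops growth completely.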
What was measured:
Assay in all cases: NCI anticancer screen, dose series, 48 h
[1] = tested on: DU-145 prostate
[2] = tested on: MCF7 breast
[3] = tested on: SF-268 CNS
[4] = tested on: HL-60(TB) leukemia
[5] = tested on: RPMI-8226 leukemia
[6] = tested on: SK-MEL-28 melanoma
[7] = tested on: SR leukemia
[8] = tested on: ACHN renal
[9] = tested on: 786-0 renal
[10] = tested on: KM12 colon

Row | SMILES | GI50 [1] | TGI [1] | GI50 [2] | TGI [2] | GI50 [3] | TGI [3] [µM] | TGI [4] [µM] | GI50 [5] | TGI [5] | GI50 [6] | TGI [6] [µM] | GI50 [7] [µM] | TGI [7] [µM] | GI50 [8] | TGI [8] | GI50 [9] | TGI [9] | GI50 [10] | TGI [10] | GI50 [4] [µM]
1 | Cc1ccc(NC(=O)c2ccc(NC3=C(Cl)C(=O)N(Cc4ccccc4)C3=O)cc2)cc1Cl | 0.624 µM | 7.73 µM | 3.3 µM | 15.4 µM | 12.4 µM | 33.7 | 14.6 | 3.58 µM | 16.5 µM | 24.2 µM | > 100 | 0.864 | 2.98 | 12.6 µM | 25.1 µM | 3.35 µM | 15.9 µM | 31 µM | > 100 µM | 
2 | Cn1c(CC(O)c2nc3ccccc3n2C)nc2ccccc21 (centres undefined) |  | > 21.7 µM |  | > 47.2 µM |  | > 28.9 | 4.13 |  | > 19.1 µM |  | > 60.9 |  | > 100 |  | > 33.9 µM |  | > 68.6 µM |  | > 100 µM | 
3 | CCc1ccc(C2=NN(c3ccc(S(C)(=O)=O)cc3)C(=O)CC2)cc1 | 2.67 µM | > 26.8 µM | 3.04 µM | > 91.6 µM | 3.11 µM | > 100 | 6.35 | 3.97 µM | > 57.6 µM | 1.59 µM | > 100 | 0.42 | 21.7 | 8.48 µM | > 100 µM | 4.39 µM | 54.4 µM | 0.817 µM | > 96.1 µM | 1.2
4 | CN(c1ccc(NC(=O)NCCN2CCOCC2)cc1)c1ccnc(Nc2ccc(CS(C)(=O)=O)cc2)n1 | > 25 µM | > 25 µM | > 21.7 µM | > 25 µM | > 25 µM | > 25 | > 25 | > 25 µM | > 25 µM | > 25 µM | > 25 | > 25 | > 25 | > 25 µM | > 25 µM | > 25 µM | > 25 µM | 12.2 µM | > 25 µM | > 25
5 | O=S(=O)(NCCCNc1nccc(-c2c(-c3cccc(F)c3)nc3occn23)n1)c1cccc2ccccc12 | 6.97 µM | > 100 µM | 4.07 µM | > 100 µM | 7.39 µM | > 100 | 72.2 | 4.86 µM | > 100 µM | 23.6 µM | > 100 | 8.79 | > 100 | 3.64 µM | > 100 µM | 4.94 µM | > 100 µM | 3.8 µM | > 100 µM | 4.21
6 | N#Cc1cccc(C2C3=C(COC3=O)N(CCO)c3cc4c(cc32)CCC4)c1 (centres undefined) | 0.191 µM | 7.29 µM | 0.0411 µM | > 50 µM | 0.368 µM | > 50 | 0.383 | 0.212 µM | > 28.1 µM | 0.437 µM | > 50 | 0.0486 | > 50 | 0.277 µM | > 50 µM | 0.18 µM | > 50 µM | 0.136 µM | > 50 µM | 0.132
7 | Oc1c(I)cc(Cl)c2cccnc12 | 5.9 µM and 21.2 µM | > 100 µM and 50.6 µM | 3.24 µM and 6.36 µM | 41.3 µM and > 100 µM | 3.86 µM and 6.22 µM | > 100 | 6.22 | 3.43 µM and 2.86 µM | 27.2 µM and 10.8 µM | 3.75 µM and 6.69 µM | > 100 | 3.15 | 8.61 | 3.52 µM and 3.5 µM | 21.7 µM and 23.7 µM | 3.28 µM and 3.86 µM | 12.6 µM and 17.6 µM | 5.98 µM and 18.2 µM | 49.9 µM and 47.7 µM | 2.77

— PubChem BioAssay (NCI)
